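These data come from cells grown in 96-well plates and exposed to compound for 48 hours at five concentrations. Definition used: TGI = concentration required for complete inhibition of growth.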
Assays:
Assay in all cases: DTP human tumour cell line panel, 48 h
OVCAR-5 ovarian = tested on: OVCAR-5 ovarian
LOX IMVI melanoma = tested on: LOX IMVI melanoma
SK-MEL-2 melanoma = tested on: SK-MEL-2 melanoma
NCI-H226 lung = tested on: NCI-H226 lung
MALME-3M melanoma = tested on: MALME-3M melanoma
M14 melanoma = tested on: M14 melanoma
XF 498 CNS = tested on: XF 498 CNS
HL-60(TB) leukemia = tested on: HL-60(TB) leukemia
SW-620 colon = tested on: SW-620 colon
OVCAR-8 ovarian = tested on: OVCAR-8 ovarian
DMS 273 small cell lung = tested on: DMS 273 small cell lung
KM12 colon = tested on: KM12 colon
HT29 colon = tested on: HT29 colon
MOLT-4 leukemia = tested on: MOLT-4 leukemia
HCC-2998 colon = tested on: HCC-2998 colon
NCI-H23 lung = tested on: NCI-H23 lung
NCI-H460 lung = tested on: NCI-H460 lung
IGROV1 ovarian = tested on: IGROV1 ovarian
HCT-15 colon = tested on: HCT-15 colon
LXFL 529 NSCLC = tested on: LXFL 529 NSCLC
HOP-18 NSCLC = tested on: HOP-18 NSCLC
SR leukemia = tested on: SR leukemia
UACC-257 melanoma = tested on: UACC-257 melanoma
KM20L2 colon = tested on: KM20L2 colon
SK-MEL-5 melanoma = tested on: SK-MEL-5 melanoma
CAKI-1 renal = tested on: CAKI-1 renal
SF-295 CNS = tested on: SF-295 CNS
DMS 114 small cell lung = tested on: DMS 114 small cell lung
U251 CNS = tested on: U251 CNS
TK-10 renal = tested on: TK-10 renal
A498 renal = tested on: A498 renal
SF-539 CNS = tested on: SF-539 CNS
HOP-92 NSCLC = tested on: HOP-92 NSCLC
SNB-19 CNS = tested on: SNB-19 CNS
HCT-116 colon = tested on: HCT-116 colon
OVCAR-4 ovarian = tested on: OVCAR-4 ovarian
SNB-78 CNS = tested on: SNB-78 CNS
SF-268 CNS = tested on: SF-268 CNS
RXF-631 renal = tested on: RXF-631 renal
CCRF-CEM leukemia = tested on: CCRF-CEM leukemia
EKVX NSCLC = tested on: EKVX NSCLC
SK-MEL-28 melanoma = tested on: SK-MEL-28 melanoma
SN12C renal = tested on: SN12C renal
COLO 205 colon = tested on: COLO 205 colon
ACHN renal = tested on: ACHN renal
RPMI-8226 leukemia = tested on: RPMI-8226 leukemia
DLD-1 colon = tested on: DLD-1 colon
RXF 393 renal = tested on: RXF 393 renal
A549 NSCLC = tested on: A549 NSCLC
SNB-75 CNS = tested on: SNB-75 CNS

Measured: TGI

CC(=O)NC1C(O)CC(OCCCSCCN)(C(=O)O)OC1C(O)C(O)CO (stereo not given)
> 100 µM: all assays above

Reference: PubChem BioAssay (NCI)
